Several values for one entry are separate records, joined by “and”; a condition that tells them apart may be missing. Equal values may be shown once.
Columns and labels:
rat brain TSPO = rat brain TSPO (Rattus norvegicus, UniProt P16257); assay type: binding; conditions: for LipE: pKi (rat) minus clogD
human leukocyte HAB TSPO = human leukocyte HAB TSPO (Homo sapiens, UniProt P30536, T147A); assay: Ligand binding affinity to human leukocyte HAB TSPO
human leukocyte LAB TSPO = human leukocyte LAB TSPO (Homo sapiens, UniProt P30536); assay: Ligand binding affinity to human leukocyte LAB TSPO
Sequence of human leukocyte LAB TSPO (P30536 whole entry): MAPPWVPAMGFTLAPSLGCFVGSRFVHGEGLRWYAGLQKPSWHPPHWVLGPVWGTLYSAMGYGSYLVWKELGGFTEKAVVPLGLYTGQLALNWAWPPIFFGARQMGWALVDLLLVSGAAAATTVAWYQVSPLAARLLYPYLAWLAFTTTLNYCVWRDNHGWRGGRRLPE

[1] = tested on: human leukocyte HAB and LAB TSPO; assay: Human TSPO genotype sensitivity, Ki in LAB versus HAB leukocytes; assay type: binding; conditions: for (LAB Ki)/(HAB Ki): genotype sensitivity, ratio of Ki; for genotype sensitivity in words: LAB versus HAB TSPO
TSPO in rat brain cortex = conditions: read-out: IC50, inhibition of [3H]1; cited from earlier work

Sequence of human leukocyte HAB TSPO (P30536 whole entry T147A): as the sequence (P30536 whole entry) above, with T147A counted along it
Sequence of rat brain TSPO (P16257 whole entry): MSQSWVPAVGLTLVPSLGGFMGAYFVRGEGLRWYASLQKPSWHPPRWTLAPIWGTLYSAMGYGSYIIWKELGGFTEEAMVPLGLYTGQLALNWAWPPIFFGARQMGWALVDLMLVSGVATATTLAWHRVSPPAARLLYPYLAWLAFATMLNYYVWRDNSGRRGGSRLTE

Compound | Ki (rat brain TSPO) | LipE (rat brain TSPO) | Ki (human leukocyte HAB TSPO) | Ki (human leukocyte LAB TSPO) | (LAB Ki)/(HAB Ki) [1] | further results
CC(Oc1cc(-c2ccccc2)nc2ccccc12)C(=O)N(C)c1ccccc1 (stereo not shown) [15a, N-Methyl-N-phenyl-2-[(2-phenylquinolin-4-yl)oxy]propanamide] | 0.07 ± 0.004 nM | 5.42 ± 0.03 | 0.5 ± 0.2 nM | 1.3 ± 0.2 nM | 2.5 and 2.5 ± 0.9 | 
CC(Cc1cc(-c2ccccc2)nc2ccccc12)C(=O)N(C)c1ccccn1 (stereo not shown) [10o, N,2-dimethyl-3-(2-phenylquinolin-4-yl)-N-(pyridin-2-yl)propanamide] | 1.6 ± 0.6 nM | 3.6 ± 0.2 | 4 ± 1 nM | 119 ± 56 nM | 30 ± 18 | 
CC(Oc1cc(-c2ccccn2)nc2ccccc12)C(=O)N(C)c1ccccc1 (stereo not shown) [22a, N-Methyl-N-phenyl-2-{[2-(pyridin-2-yl)quinolin-4-yl]oxy}propanamide] | 0.1 ± 0.05 nM | 5.9 ± 0.2 | 1.4 ± 0.2 nM | 1.4 ± 0.5 nM | 1.0 ± 0.4 | genotype sensitivity in words [1]: insensitive; Ki ([1]; read-out: human TSPO genotypes Ki, abstract, one value for the human genotypes): 1.4 nM
CC(Cc1cc(-c2ccccc2)nc2ccccc12)C(=O)N(C)c1cccc(F)c1 (stereo not shown) [10s, N-(3-fluorophenyl)-N,2-dimethyl-3-(2-phenylquinolin-4-yl)propanamide] | 0.8 ± 0.2 nM | 3.5 ± 0.1 |  |  |  | 
CC(Cc1cc(-c2ccc(Cl)cc2)nc2ccccc12)C(=O)N(C)C(C)C (stereo not shown) [10w, 3-[2-(4-chlorophenyl)quinolin-4-yl)-N,2-dimethyl-N-(propan-2-yl)propanamide] | 4 ± 1 nM | 3.6 ± 0.1 |  |  |  | 
CCC(C)N(C)C(=O)c1cc2ccccc2c(-c2ccccc2Cl)n1 (stereo not shown) [compound 1, 1-(2-chlorophenyl)-N-methyl-N-(1-methylpropyl)-3-isoquinolinecarboxamide, reference compound] |  |  |  |  |  | genotype sensitivity in words [1]: low genotype sensitivity
CC(Cc1cc(-c2ccccc2)nc2ccccc12)C(=O)N(C)c1ccccc1 (stereo not shown) [10m, N,2-dimethyl-N-phenyl-3-(2-phenylquinolin-4-yl)propanamide] | 0.9 ± 0.2 nM | 3.5 ± 0.1 | 1.9 ± 0.5 nM | 53 ± 22 nM | 27 ± 14 | 
CC(Nc1cc(-c2ccccc2)nc2ccccc12)C(=O)N(C)c1ccccc1 (stereo not shown) [compound 14, N-Methyl-N-phenyl-2-[(2-phenylquinolin-4-yl)amino]propanamide] | 0.19 ± 0.01 nM | 5.62 ± 0.03 | 0.44 ± 0.08 nM | 4 ± 1 nM | 9 ± 3 | 
CC(Sc1cc(-c2ccccc2)nc2ccccc12)C(=O)N(C)c1ccccc1 (stereo not shown) [compound 12, N-Methyl-N-phenyl-2-[(2-phenylquinolin-4-yl)sulfanyl]propanamide] | 0.39 ± 0.04 nM | 4.10 ± 0.05 | 2.5 ± 0.6 nM | 26 ± 5 nM | 10 ± 3 | 
CCN(CC)C(=O)CCc1cc(-c2ccccc2)nc2ccccc12 [10b, N,N-diethyl-3-(2-phenylquinolin-4-yl)propanamide] | 32 ± 11 nM | 2.7 ± 0.2 |  |  |  | 
CC(Oc1ccnc2ccccc12)C(=O)N(C)c1ccccc1 (stereo not shown) [15b, N-methyl-N-phenyl-2-(quinolin-4-yloxy)propanamide] | 5.7 ± 0.5 nM | 5.29 ± 0.04 | 3.3 ± 0.9 nM | 66 ± 22 nM | 20 ± 9 | rat TSPO affinity in words (rat brain TSPO): low nanomolar range; HAB binding affinity in words (human leukocyte HAB TSPO): low nanomolar
CC(Cc1cc(-c2ccccc2)nc2ccccc12)C(=O)N(C)c1ccncc1 (stereo not shown) [10q, N,2-dimethyl-3-(2-phenylquinolin-4-yl)-N-(pyridin-4-yl)propanamide] | 106 ± 24 nM | 1.7 ± 0.1 |  |  |  | 
CCC(Cc1cc(-c2ccccc2)nc2ccccc12)C(=O)N(CC)CC (stereo not shown) [10c, N,N-diethyl-2-[(2-phenylquinolin-4-yl)methyl]butanamide] | 14 ± 6 nM | 2.6 ± 0.2 |  |  |  | 
CC(Cc1cc(-c2ccccc2)nc2ccccc12)C(=O)N(C)c1ccccc1F (stereo not shown) [10r, N-(2-fluorophenyl)-N,2-dimethyl-3-(2-phenylquinolin-4-yl)propanamide] | 0.9 ± 0.2 nM | 3.5 ± 0.1 |  |  |  | 
CC(Cc1cc(-c2ccccc2)nc2ccccc12)C(=O)N(C)c1ccc(F)cc1 (stereo not shown) [10t, N-(4-fluorophenyl)-N,2-dimethyl-3-(2-phenylquinolin-4-yl)propanamide] | 0.4 ± 0.1 nM | 4.1 ± 0.2 |  |  |  | 
CN1CCC(Cc2cc(-c3ccccc3)nc3ccccc23)C1=O (stereo not shown) [10d, 1-methyl-3-[(2-phenylquinolin-4-yl)methyl]pyrrolidin-2-one] | 53 ± 22 nM | 3.6 ± 0.2 |  |  |  | 
CC(Oc1ccnc(-c2ccccc2)c1)C(=O)N(C)c1ccccc1 (stereo not shown) [15c, N-methyl-N-phenyl-2-[(2-phenylpyridin-4-yl)oxy]propanamide] | 3.3 ± 0.6 nM | 5.3 ± 0.3 | 2 ± 0.6 nM | 62 ± 11 nM | 31 ± 11 | rat TSPO affinity in words (rat brain TSPO): low nanomolar range; HAB binding affinity in words (human leukocyte HAB TSPO): low nanomolar
CC(Oc1cc(-c2ccncc2)nc2ccccc12)C(=O)N(C)c1ccccc1 (stereo not shown) [22c, N-methyl-N-phenyl-2-{[2-(pyridin-4-yl)quinolin-4-yl]oxy}propanamide] | 0.22 ± 0.02 nM | 5.60 ± 0.04 | 1 ± 0.5 nM | 7 ± 3 nM | 7 ± 5 | genotype sensitivity in words [1]: much less sensitive
CC(Oc1cc(-c2cccnc2)nc2ccccc12)C(=O)N(C)c1ccccc1 (stereo not shown) [22b, N-methyl-N-phenyl-2-{[2-(pyridin-3-yl)quinolin-4-yl]oxy}propanamide] | 0.2 ± 0.03 nM | 5.6 ± 0.1 | 0.9 ± 0.09 nM | 12 ± 3 nM | 13 ± 4 | rat TSPO affinity in words (rat brain TSPO): subnanomolar

Further lines, with some results ahead:

Ki (rat brain TSPO) | LipE (rat brain TSPO) | Ki (human leukocyte HAB TSPO) | Ki (human leukocyte LAB TSPO) | (LAB Ki)/(HAB Ki) [1] | Compound | further results
22 ± 6 nM | 3.2 ± 0.1 |  |  |  | CC(Cc1cc(-c2ccccc2Cl)nc2ccccc12)C(=O)N(C)C(C)C (stereo not shown) [10u, 3-[2-(2-chlorophenyl)quinolin-4-yl)-N,2-dimethyl-N-(propan-2-yl)propanamide] | 
4 ± 1 nM | 3.7 ± 0.1 |  |  |  | CC(Cc1cc(-c2cccc(Cl)c2)nc2ccccc12)C(=O)N(C)C(C)C (stereo not shown) [10v, 3-[2-(3-chlorophenyl)quinolin-4-yl)-N,2-dimethyl-N-(propan-2-yl)propanamide] | 
0.6 ± 0.1 nM | 2.6 ± 0.1 |  |  |  | CCCCCN(C)C(=O)C(C)Cc1cc(-c2ccccc2)nc2ccccc12 (stereo not shown) [10i, N,2-dimethyl-N-pentyl-3-(2-phenylquinolin-4-yl)propanamide] | 
2.1 ± 0.6 nM | 4.4 ± 0.1 |  |  |  | CCN(CC)C(=O)C(C)Cc1cc(-c2ccccc2)nc2ccccc12 (stereo not shown) [10a, N,N-Diethyl-2-methyl-3-(2-phenylquinolin-4-yl)propanamide] | IC50 (TSPO in rat brain cortex): 13.7 nM
73 ± 36 nM | 2.9 ± 0.1 |  |  |  | CCN(CC)C(=O)[C@@H](C)Cc1cc(-c2ccccc2)nc2ccccc12 [(S)-10a, (S)-N,N-Diethyl-2-methyl-3-(2-phenylquinolin-4-yl)propanamide] | 
5 ± 2 nM | 3.3 ± 0.1 | 6 ± 2 nM | 185 ± 81 nM | 32 ± 18 | CC(C)CN(C)C(=O)C(C)Cc1cc(-c2ccccc2)nc2ccccc12 (stereo not shown) [10l, N,2-dimethyl-N-(2-methylpropyl)-3-(2-phenylquinolin-4-yl)propanamide] | 
1.2 ± 0.4 nM | 4.2 ± 0.1 |  |  |  | CCCN(C)C(=O)C(C)Cc1cc(-c2ccccc2)nc2ccccc12 (stereo not shown) [10g, N,2-dimethyl-3-(2-phenylquinolin-4-yl)-N-propylpropanamide] | 
9 ± 2 nM | 3.8 ± 0.1 |  |  |  | CCN(C)C(=O)C(C)Cc1cc(-c2ccccc2)nc2ccccc12 (stereo not shown) [10f, N-ethyl-N,2-dimethyl-3-(2-phenylquinolin-4-yl)propanamide] | 
0.4 ± 0.2 nM | 3.9 ± 0.2 | 1 ± 0.6 nM | 89 ± 3 nM | 89 ± 50 | CCCCN(C)C(=O)C(C)Cc1cc(-c2ccccc2)nc2ccccc12 (stereo not shown) [10h, N-butyl-N,2-dimethyl-3-(2-phenylquinolin-4-yl)propanamide] | 
10 ± 3 nM | 2.7 ± 0.1 |  |  |  | CC(Cc1cc(-c2ccccc2)nc2ccccc12)C(=O)N(C)c1cccnc1 (stereo not shown) [10p, N,2-dimethyl-3-(2-phenylquinolin-4-yl)-N-(pyridin-3-yl)propanamide] | 
2.9 ± 0.9 nM | 4.3 ± 0.1 | 15 ± 2 nM | 973 ± 409 nM | 64 ± 28 | CC(Cc1cc(-c2ccccc2)nc2ccccc12)C(=O)N(C)C(C)C (stereo not shown) [10j, N,2-dimethyl-3-(2-phenylquinolin-4-yl)-N-(propan-2-yl)propanamide] | 
0.9 ± 0.09 nM | 4.72 ± 0.04 | 10 ± 2 nM | 743 ± 190 nM | 76 ± 27 | CCN(CC)C(=O)[C@H](C)Cc1cc(-c2ccccc2)nc2ccccc12 [(R)-10a, (R)-N,N-Diethyl-2-methyl-3-(2-phenylquinolin-4-yl)propanamide] | fold lower affinity to HAB TSPO than to rat TSPO (human leukocyte HAB TSPO): about 10 -fold; fold lower affinity for LAB TSPO than for HAB TSPO [1]: about 76 -fold
40 ± 8 nM | 2.8 ± 0.1 |  |  |  | CC(Cc1cc(-c2ccccc2)nc2ccccc12)C(=O)N(C)C (stereo not shown) [10e, N,N,2-trimethyl-3-(2-phenylquinolin-4-yl)propanamide] | 
5 ± 3 nM | 1.8 ± 0.2 |  |  |  | CC(Cc1cc(-c2ccccc2)nc2ccccc12)C(=O)N(C)Cc1ccccc1 (stereo not shown) [10n, N-benzyl-N,2-dimethyl-3-(2-phenylquinolin-4-yl)propanamide] | 
